According to patent publication US11825868B2, “Sweetener composition” (Hapy Sweet Bee Ltd, priority 2019, dated 2023):
Values after ≈ are worked out from the molar mass of the structure shown. Values belong to the compound of their own block, whether it stands above or below them.

Experiments:
[1] = Solubility and retention of reb-M in 1,3-propanediol after heating and cooling; format: physicochemical
Method: The solvent or liquid base for the sweetener composition may comprise 1,3-propanediol and optionally one or more additional solvents. […] (175° F.) and cooled to room temperature. […] (36° F.).

[2] = on the palate; reb-M used alone or substantially alone, compared to established rebaudioside sweeteners including reb-A; cited from earlier work
[3] = room temperature; cited from earlier work
[4] = relative to sucrose, baseline 1.0; cited from earlier work
microbial growth = conditions: cited from earlier work

solubility ([1]; 1,3-propanediol, organic solvent or mixture, thermodynamic from solid, solvent heated in excess of 80° C. (175° F.) and cooled to room temperature): ~795 mg/mL (≈ 616 mM) | retention in solution on cooling ([1]; heated 1,3-propanediol solution cooled back to room temperature): retained in the solution | retention in solution on cooling ([1]; heated 1,3-propanediol solution cooled to approximately 2° C. (36° F.)): retained in solution
Compound: C=C1C[C@@]23CC[C@H]4[C@@](C)(CCC[C@@]4(C)C(=O)O[C@@H]4O[C@H](CO)[C@@H](O)[C@H](O[C@@H]5O[C@H](CO)[C@@H](O)[C@H](O)[C@H]5O)[C@H]4O[C@@H]4O[C@H](CO)[C@@H](O)[C@H](O)[C@H]4O)[C@@H]2CC[C@]1(O[C@@H]1O[C@H](CO)[C@@H](O)[C@H](O[C@@H]2O[C@H](CO)[C@@H](O)[C@H](O)[C@H]2O)[C@H]1O[C@@H]1O[C@H](CO)[C@@H](O)[C@H](O)[C@H]1O)C3 [reb-M, rebaudioside-M]
bitter aftertaste [2]: reduced bitterness of aftertaste | solubility in water [3]: up to 0.1 g per 100 ml water

Compound: OC[C@H]1O[C@@](CO)(O[C@H]2O[C@H](CO)[C@@H](O)[C@H](O)[C@H]2O)[C@@H](O)[C@@H]1O [sucrose]
sweetness index [4]: 1.0

Compound: O=C(CO)[C@@H](O)[C@H](O)[C@H](O)CO [fructose]
sweetness index [4]: approximately 1.7

Compound: 1,3-propanediol
minimum inhibitory concentration (MIC) compared with other solvents such as glycerin (microbial growth): lower

Compound: C=C1C[C@@]23CC[C@H]4[C@@](C)(CCC[C@@]4(C)C(=O)O[C@@H]4O[C@H](CO)[C@@H](O)[C@H](O)[C@H]4O)[C@@H]2CC[C@]1(O[C@@H]1O[C@H](CO)[C@@H](O)[C@H](O[C@@H]2O[C@H](CO)[C@@H](O)[C@H](O)[C@H]2O)[C@H]1O[C@@H]1O[C@H](CO)[C@@H](O)[C@H](O)[C@H]1O)C3 [reb-A, Rebaudioside A]
bitter aftertaste [2]: bitter aftertaste
